According to patent US8778871B2 (Takeda Pharmaceutical Company Limited, priority 2004, dated 2014):
Non-standard residues stand in square brackets, D forms with d. NMeW = CN[C@@H](Cc1c[nH]c2ccccc12)C(=O)O; Arg(Me) = CNC(=N)NCCC[C@H](N)C(=O)O; Nva = CCC[C@H](N)C(=O)O; azaGly = NNC(=O)O

What was measured:
hOT7T175 = target: T1, hOT7T175 (Homo sapiens, UniProt Q969F8, L364H); format: cell-based; settings: hOT7T175/CHO, FLIPR, evaluation for 40 seconds after initiation of the reaction
T1 construct: expressed in transfected cells
T1 sequence (Q969F8 whole entry L364H): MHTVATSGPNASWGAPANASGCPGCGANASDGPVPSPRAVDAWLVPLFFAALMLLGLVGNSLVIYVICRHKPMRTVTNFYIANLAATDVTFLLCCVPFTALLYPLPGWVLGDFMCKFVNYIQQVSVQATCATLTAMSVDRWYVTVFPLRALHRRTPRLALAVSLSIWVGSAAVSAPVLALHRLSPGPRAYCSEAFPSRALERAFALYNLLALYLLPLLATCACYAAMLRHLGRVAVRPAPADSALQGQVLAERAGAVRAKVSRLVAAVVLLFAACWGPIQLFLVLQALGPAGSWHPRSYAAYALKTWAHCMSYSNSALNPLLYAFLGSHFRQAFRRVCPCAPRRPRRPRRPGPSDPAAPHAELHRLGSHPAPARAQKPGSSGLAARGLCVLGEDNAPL
Experimental: The intracellular Ca ion level-increasing activity was measured using FLIPR as in TEST EXAMPLE 2.

[1] = Action of reducing testosterone level in blood in mature male rat (1 mM peptide in 50% DMSO, ALZET osmotic pump); format: in vivo; settings: 1 mM peptide in 50% DMSO aqueous solution, ALZET osmotic pump s.c., six days
Experimental: The peptide was encapsulated in five ALZET osmotic pump (Model 2001, 0.2 ml of volume, releasing rate 0.001 ml/hr, DURECT Corporation). The ALZET pumps encapsulated with the peptide solution were implanted to dorsal subcutaneous of five male CD (SD) IGS rat at nine weeks age (Charles River Japan, Inc.) anesthesized with ether for one pump to one rat. Separately, for negative controls, the ALZET osmotic pumps encapsulated with distilled water were implanted to five male CD (SD) IGS rat (Charles River Japan, Inc.) The rats were bred for six days under the normal conditions. After weighing, blood was collected by decapitation. To 1 ml of blood, 0.03 ml of aprotinin (Trasylol, Byer) solution containing 0.1 g/ml EDTA 2Na was added. The plasma was isolated by centrifugation at 1,800×g for 25 minutes and collected. The thus obtained plasma, 0.05 ml was effected by radioimmunoassay. (DPC Total Testosterone Kit, Diagnostic Products Corporation) to measure testosterone level in blood of each rat. The value beneath measuring limit of radioimmunoassay (0.04 ng/ml as concentration of plasma) was treated as zero. The mean values for testosterone level of five rats, to which the peptide was given, was calculated and the relative value (percentage) for the mean values of testosterone level of five rats, to which distilled watrer was given, was estimated.

| Substance | Specific Act. (EC50/MS10 EC50) (hOT7T175) | Testosterone level in Blood [1] |
| --- | --- | --- |
| Ac-D-Tyr-D-Trp-Asn-Thr-Phe-AzaGly-Nva-Arg(Me)-Trp-NH2 (Ac-[dY][dW]NTF[azaGly][Nva][Arg(Me)]W-NH2; SMILES CCC[C@H](NC(=O)NNC(=O)[C@H](Cc1ccccc1)NC(=O)[C@@H](NC(=O)[C@H](CC(N)=O)NC(=O)[C@@H](Cc1c[nH]c2ccccc12)NC(=O)[C@@H](Cc1ccc(O)cc1)NC(C)=O)[C@@H](C)O)C(=O)N[C@@H](CCCNC(=N)NC)C(=O)N[C@@H](Cc1c[nH]c2ccccc12)C(N)=O) [Compound No. 677] | 0.3 | 2% |
| Ac-D-Tyr-D-Trp-Asn-Thr-Pya(4)-AzaGly-Leu-Arg(Me)-Trp-NH2 [Compound No. 635] | 1.4 | 2% |
| Ac-D-Tyr-D-Tyr-D-Trp-Asn-Thr-Phe-AzaGly-Leu-Arg(Me)-Trp-NH2 (Ac-[dY][dY][dW]NTF[azaGly]L[Arg(Me)]W-NH2; SMILES CNC(=N)NCCC[C@H](NC(=O)[C@H](CC(C)C)NC(=O)NNC(=O)[C@H](Cc1ccccc1)NC(=O)[C@@H](NC(=O)[C@H](CC(N)=O)NC(=O)[C@@H](Cc1c[nH]c2ccccc12)NC(=O)[C@@H](Cc1ccc(O)cc1)NC(=O)[C@@H](Cc1ccc(O)cc1)NC(C)=O)[C@@H](C)O)C(=O)N[C@@H](Cc1c[nH]c2ccccc12)C(N)=O) [Compound No. 651] | 0.7 | 2% |
| Ac-D-Tyr-NMeTrp-Asn-Thr-Phe-AzaGly-Leu-Arg(Me)-Trp-NH2 (Ac-[dY][NMeW]NTF[azaGly]L[Arg(Me)]W-NH2; SMILES CNC(=N)NCCC[C@H](NC(=O)[C@H](CC(C)C)NC(=O)NNC(=O)[C@H](Cc1ccccc1)NC(=O)[C@@H](NC(=O)[C@H](CC(N)=O)NC(=O)[C@H](Cc1c[nH]c2ccccc12)N(C)C(=O)[C@@H](Cc1ccc(O)cc1)NC(C)=O)[C@@H](C)O)C(=O)N[C@@H](Cc1c[nH]c2ccccc12)C(N)=O) [Compound No. 672] | 2.1 | 2% |
| Ac-D-Tyr-Pro-Asn-Thr-Phe-AzaGly-Leu-Arg(Me)-Trp-NH2 (Ac-[dY]PNTF[azaGly]L[Arg(Me)]W-NH2; SMILES CNC(=N)NCCC[C@H](NC(=O)[C@H](CC(C)C)NC(=O)NNC(=O)[C@H](Cc1ccccc1)NC(=O)[C@@H](NC(=O)[C@H](CC(N)=O)NC(=O)[C@@H]1CCCN1C(=O)[C@@H](Cc1ccc(O)cc1)NC(C)=O)[C@@H](C)O)C(=O)N[C@@H](Cc1c[nH]c2ccccc12)C(N)=O) [Compound No. 657] | 1.1 | 2% |
| Ac-G[dY][dW]NTF[azaGly]L[Arg(Me)]W-NH2 [Compound No. 649] | 1 | 2% |
| Ac-Tyr-D-Tyr-D-Trp-Asn-Thr-Phe-AzaGly-Leu-Arg(Me)-Trp-NH2 (Ac-Y[dY][dW]NTF[azaGly]L[Arg(Me)]W-NH2; SMILES CNC(=N)NCCC[C@H](NC(=O)[C@H](CC(C)C)NC(=O)NNC(=O)[C@H](Cc1ccccc1)NC(=O)[C@@H](NC(=O)[C@H](CC(N)=O)NC(=O)[C@@H](Cc1c[nH]c2ccccc12)NC(=O)[C@@H](Cc1ccc(O)cc1)NC(=O)[C@H](Cc1ccc(O)cc1)NC(C)=O)[C@@H](C)O)C(=O)N[C@@H](Cc1c[nH]c2ccccc12)C(N)=O) [Compound No. 676] | 1.4 | 2% |
| Ac-Tyr-Trp-Asn-Thr-Phe-AzaGly-Leu-Arg(Me)-Trp-NH2 (Ac-YWNTF[azaGly]L[Arg(Me)]W-NH2; SMILES CNC(=N)NCCC[C@H](NC(=O)[C@H](CC(C)C)NC(=O)NNC(=O)[C@H](Cc1ccccc1)NC(=O)[C@@H](NC(=O)[C@H](CC(N)=O)NC(=O)[C@H](Cc1c[nH]c2ccccc12)NC(=O)[C@H](Cc1ccc(O)cc1)NC(C)=O)[C@@H](C)O)C(=O)N[C@@H](Cc1c[nH]c2ccccc12)C(N)=O) [Compound No. 664] | 0.6 | 6% |
| Ac-Y[dW]NTF[azaGly]L[Arg(Me)]W-NH2 [Compound No. 615] | 0.7 | 2% |
